# Laboratory results as given in PubChem BioAssay (NCI).
#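 Five compound concentrations were applied to cells in 96-well plates for 48 hours; endpoints were derived by simple linear interpolation of the resulting dose-response curve. GI50 marks 50% less growth. TGI: concentration producing complete growth inhibition.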
# How the values were obtained:
# Experiment in all cases: inhibition of tumour cell growth, NCI panel, 48 h
# [1] = system: 786-0 renal
# [2] = system: A498 renal
# [3] = system: A549 NSCLC
# [4] = system: ACHN renal
# [5] = system: BT-549 breast
# [6] = system: CAKI-1 renal
# [7] = system: CCRF-CEM leukemia
# [8] = system: COLO 205 colon
# [9] = system: DU-145 prostate
# [10] = system: EKVX NSCLC
# [11] = system: HCC-2998 colon
# [12] = system: HCT-116 colon
# [13] = system: HCT-15 colon
# [14] = system: HL-60(TB) leukemia
# [15] = system: HOP-62 NSCLC
# [16] = system: HOP-92 NSCLC
# [17] = system: HT29 colon
# [18] = system: IGROV1 ovarian
# [19] = system: KM12 colon
# [20] = system: LOX IMVI melanoma
# [21] = system: M14 melanoma
# [22] = system: MALME-3M melanoma
# [23] = system: MCF7 breast
# [24] = system: MDA-MB-231 breast
# [25] = system: MDA-MB-435
# [26] = system: MOLT-4 leukemia
# [27] = system: NCI-H226 lung
# [28] = system: NCI-H23 lung
# [29] = system: NCI-H460 lung
# [30] = system: NCI-H522 lung
# [31] = system: NCI/ADR-RES ovarian
# [32] = system: OVCAR-3 ovarian
# [33] = system: OVCAR-4 ovarian
# [34] = system: OVCAR-5 ovarian
# [35] = system: OVCAR-8 ovarian
# [36] = system: PC-3 prostate
# [37] = system: RPMI-8226 leukemia
# [38] = system: RXF 393 renal
# [39] = system: SF-268 CNS
# [40] = system: SF-295 CNS
# [41] = system: SF-539 CNS
# [42] = system: SK-MEL-2 melanoma
# [43] = system: SK-MEL-28 melanoma
# [44] = system: SK-MEL-5 melanoma
# [45] = system: SK-OV-3 ovarian
# [46] = system: SN12C renal
# [47] = system: SNB-19 CNS
# [48] = system: SNB-75 CNS
# [49] = system: SR leukemia
# [50] = system: SW-620 colon
# [51] = system: T-47D breast
# [52] = system: TK-10 renal
# [53] = system: U251 CNS
# [54] = system: UACC-257 melanoma
# [55] = system: UACC-62 melanoma
# [56] = system: UO-31 renal
structure (smiles),measurement,setting,value
Clc1ccc2c(c1)C(N1CCNCC1)=Nc1ccccc1O2,GI50,[1],1490 nM
same,TGI,[1],3270 nM
same,GI50,[2],3100 nM
same,TGI,[2],5460 nM
same,GI50,[3],4500 nM
same,TGI,[3],16900 nM
same,GI50,[4],1970 nM
same,TGI,[4],4200 nM
same,GI50,[5],2420 nM
same,TGI,[5],10200 nM
same,GI50,[6],2200 nM
same,TGI,[6],7830 nM
same,GI50,[7],1900 nM
same,TGI,[7],4770 nM
same,GI50,[8],1360 nM
same,TGI,[8],2670 nM
same,GI50,[9],4180 nM
same,TGI,[9],15400 nM
same,GI50,[10],3470 nM
same,TGI,[10],17400 nM
same,GI50,[11],1580 nM
same,TGI,[11],2920 nM
same,GI50,[12],1420 nM
same,TGI,[12],2800 nM
same,GI50,[13],3260 nM
same,TGI,[13],11700 nM
same,GI50,[14],1950 nM
same,TGI,[14],3860 nM
same,GI50,[15],2010 nM
same,TGI,[15],4660 nM
same,GI50,[16],374 nM
same,TGI,[16],2800 nM
same,GI50,[17],1720 nM
same,TGI,[17],4190 nM
same,GI50,[18],2890 nM
same,TGI,[18],11100 nM
same,GI50,[19],1730 nM
same,TGI,[19],3280 nM
same,GI50,[20],1540 nM
same,TGI,[20],2870 nM
same,GI50,[21],1680 nM
same,TGI,[21],3070 nM
same,GI50,[22],1750 nM
same,TGI,[22],3500 nM
same,GI50,[23],1620 nM
same,TGI,[23],3050 nM
same,GI50,[24],1790 nM
same,TGI,[24],4020 nM
same,GI50,[25],1650 nM
same,TGI,[25],3110 nM
same,GI50,[26],1820 nM
same,TGI,[26],4190 nM
same,GI50,[27],2570 nM
same,TGI,[27],11900 nM
same,GI50,[28],3460 nM
same,TGI,[28],14300 nM
same,GI50,[29],2460 nM
same,TGI,[29],5410 nM
same,GI50,[30],1820 nM
same,TGI,[30],3870 nM
same,GI50,[31],1990 nM
same,TGI,[31],5120 nM
same,GI50,[32],2800 nM
same,TGI,[32],10400 nM
same,GI50,[33],2450 nM
same,TGI,[33],8720 nM
same,GI50,[34],3280 nM
same,TGI,[34],12900 nM
same,GI50,[35],1860 nM
same,TGI,[35],4000 nM
same,GI50,[36],1540 nM
same,TGI,[36],8740 nM
same,GI50,[37],1960 nM
same,TGI,[37],4930 nM
same,GI50,[38],1220 nM
same,TGI,[38],2770 nM
same,GI50,[39],2650 nM
same,TGI,[39],11800 nM
same,GI50,[40],1920 nM
same,TGI,[40],3820 nM
same,GI50,[41],1750 nM
same,TGI,[41],3360 nM
same,GI50,[42],1770 nM
same,TGI,[42],3400 nM
same,GI50,[43],1610 nM
same,TGI,[43],2960 nM
same,GI50,[44],1390 nM
same,TGI,[44],2690 nM
same,GI50,[45],1940 nM
same,TGI,[45],4500 nM
same,GI50,[46],2870 nM
same,TGI,[46],13600 nM
same,GI50,[47],2970 nM
same,TGI,[47],12800 nM
same,GI50,[48],1130 nM
same,TGI,[48],2790 nM
same,GI50,[49],1660 nM
same,TGI,[49],4300 nM
same,GI50,[50],1620 nM
same,TGI,[50],3150 nM
same,GI50,[51],1910 nM
same,TGI,[51],4580 nM
same,GI50,[52],2040 nM
same,TGI,[52],4720 nM
same,GI50,[53],1510 nM
same,TGI,[53],2990 nM
same,GI50,[54],1500 nM
same,TGI,[54],2870 nM
same,GI50,[55],1630 nM
same,TGI,[55],3100 nM
same,GI50,[56],1640 nM
same,TGI,[56],10600 nM
